Paper PMC9085648, “Synthesis of novel genistein amino acid derivatives and investigation on their interactions with bovine serum albumin by spectroscopy and molecular docking” (RSC Advances, 2018)
Where two headings read alike, the source gives them in different places.

How the values were obtained:
MCF-7 = assay: MTT cytotoxicity assay, MCF-7; assay type: cell-based; conditions: Homo sapiens, MCF7, 48 h, mean ± SD of three experiments, read-out: Cancer cell lines IC50, MCF-7
Method: (§1) All cell lines were purchased from the Cell Bank of Type Culture Collection of Chinese Academy of Sciences (Shanghai, China). MGC-803 was routinely cultured in RPMI-1640 medium containing 10% FBS and 1% penicillin/streptomycin. MCF-7, HCT-116 and Hela were routinely cultured in medium DMEM/high glucose containing 10% FBS and 1% penicillin/streptomycin. All cell lines were incubated in culture at 37 °C in air with 5% CO2 for 24 h.
(§2) All cell lines were plated in 96-well plates, and each well contains 4000 cells in 100 μL culture medium. Then the cells were treated with genistein or its amino acid derivatives dissolved in DMSO at different doses in a CO2 incubator at 37 °C for 48 h, and DMSO was used as vehicle control. After removing the culture medium, 10 μL MTT and 90 μL blank culture medium were added to each well and incubated for additional 4 h at 37 °C. The absorbance was determined by a microplate-reader at 490 nm.

BSA [1] = target: T1, BSA (Bos taurus, UniProt P02769); assay: Three-dimensional fluorescence spectroscopy of BSA; assay type: binding, bovine
T1 construct: purchased Aladdin's Reagent Co., Ltd. (Shanghai, China)
T1 sequence (P02769 25-607): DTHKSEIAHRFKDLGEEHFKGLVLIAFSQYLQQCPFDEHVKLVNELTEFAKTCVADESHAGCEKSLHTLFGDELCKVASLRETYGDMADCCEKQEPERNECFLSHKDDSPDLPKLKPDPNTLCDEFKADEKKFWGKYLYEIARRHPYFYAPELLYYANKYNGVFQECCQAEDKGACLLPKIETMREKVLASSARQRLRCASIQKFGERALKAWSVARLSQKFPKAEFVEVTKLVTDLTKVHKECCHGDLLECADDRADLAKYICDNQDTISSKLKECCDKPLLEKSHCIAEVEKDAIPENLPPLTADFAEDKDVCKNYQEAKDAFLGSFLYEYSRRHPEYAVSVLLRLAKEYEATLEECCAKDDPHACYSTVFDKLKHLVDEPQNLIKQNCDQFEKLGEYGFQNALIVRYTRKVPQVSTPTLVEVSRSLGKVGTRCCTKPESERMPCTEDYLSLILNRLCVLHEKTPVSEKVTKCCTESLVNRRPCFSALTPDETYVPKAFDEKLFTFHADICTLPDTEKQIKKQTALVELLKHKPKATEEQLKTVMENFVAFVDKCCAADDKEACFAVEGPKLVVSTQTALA
Method: The 3D fluorescence spectra of genistein and compounds 4a–4d were recorded with scanning excitation wavelength ranged from 200 nm to 300 nm with 10 nm interval, and emission wavelength ranged from 290 nm to 470 nm with 5 nm interval for three times. Other parameters were the same as Section 2.4.1.

Hela = assay: MTT cytotoxicity assay, Hela; assay type: cell-based; conditions: Homo sapiens, 48 h, mean ± SD of three experiments, read-out: Cancer cell lines IC50, Hela
Method: as §1, §2

MGC-803 = assay: MTT cytotoxicity assay, MGC-803; assay type: cell-based; conditions: Homo sapiens, 48 h, mean ± SD of three experiments, read-out: Cancer cell lines IC50, MGC-803
Method: as §1, §2

HCT-116 = assay: MTT cytotoxicity assay, HCT-116; assay type: cell-based; conditions: Homo sapiens, 48 h, mean ± SD of three experiments, read-out: Cancer cell lines IC50, HCT-116
Method: as §1, §2

BSA [2] = target: T1, BSA; assay: Fluorescence quenching of BSA (Stern-Volmer, double-log, van't Hoff); assay type: binding, bovine; conditions: for K SV (quenching constant): BSA 1 μM, pH 7.4; for ΔGexp: ΔGexp = ΔH − TΔS; for K q (quenching rate constant): τ0 = 10^−8 s; for Kd: read-out: K b (binding constant) (converted); for ΔH / ΔS: van't Hoff, 298-310 K
Method: Fluorescence spectra were carried on a F-7000 fluorescence spectrophotometer (Japan) fitted out with a 1.0 cm quartz dish. The excitation wavelength was set at 280 nm with 5/5 nm slit widths, while the emission wavelength ranged from 290 nm to 500 nm at different temperatures. The BSA solution (1 μM) was titrated with genistein and its amino acid derivatives 4a–4d for three times. The final concentrations of genistein and 4a–4d were (0.0, 6.4, 12.8, 19.2, 25.6, 32, 38.4, 44.8, and 51.2) μM.
The Stern–Volmer equation is often applied to reveal the fluorescence quenching mechanism:[19]1 [drawing 1] where F0 and F are the fluorescence intensities of complex […], respectively.[18] [Q] denotes the concentration of quencher. Ksv and Kq are quenching constant and quenching rate constant of BSA, respectively.[20]τ0 is the lifetime of fluorophore in the absence of genistein, 4a–4d and equals to 10^−8 s.[21] […] It can be observed that the Ksv values decreased gradually with rise in temperature in Table 2. Furthermore, Kq values were in the order of 10^12, which were larger than the maximum diffusion collisional rate constant (2.0 × 10^10 M^−1 s^−1).[22]
Double-logarithmic eqn (2) is often used to explore the binding parameters of static quenching, such as binding constant (Kb) and binding sites (n):[23]2 [drawing 2]
To clarify the binding forces between genistein, 4a–4d and BSA, the thermodynamic parameters were studied via the van't Hoff equations:[25]3 [drawing 3] 4 ΔG = −RT ln K = ΔH − TΔSwhere T denotes the experimental temperature, K denotes the binding constant at the corresponding temperature, R is the gas constant.[26] According to Ross and Subramanian's previous research,[27] the characteristic for van der Waals interactions or/and hydrogen bonding is ΔH < 0 and ΔS < 0, for hydrophobic interaction is ΔH > 0 and ΔS > 0, and for electrostatic interactions is ΔH ≈ 0 and ΔS > 0.[28] The calculation results of the thermodynamic parameters were recorded in Table 3.

[3] = Peak 1, [BSA]:[compound] = 1:3, 298 K
[4] = Peak 2, [BSA]:[compound] = 1:3, 298 K
[5] = Peak a (Rayleigh scattering), [BSA]:[compound] = 1:3, 298 K

3D fluorescence intensity (BSA [1]; [3]) | 3D fluorescence peak position λex/λem (BSA [1]; [3]) | 3D fluorescence intensity (BSA [1]; [4]) | 3D fluorescence peak position λex/λem (BSA [1]; [4]) | 3D fluorescence intensity (BSA [1]; [5]) | 3D fluorescence peak position λex/λem (BSA [1]; [5]) | K SV (quenching constant) (BSA [2]; T 298 K) | ΔGexp (BSA [2]; T 298 K) | K q (quenching rate constant) (BSA [2]; T 298 K) | Kd (BSA [2]; T 298 K) | n (binding sites) (BSA [2]; T 306 K) | K SV (quenching constant) (BSA [2]; T 306 K) | ΔGexp (BSA [2]; T 306 K) | K q (quenching rate constant) (BSA [2]; T 306 K) | Kd (BSA [2]; T 306 K) | n (binding sites) (BSA [2]; T 310 K) | Compound | IC50 (MCF-7) | IC50 (Hela) | IC50 (MGC-803) | IC50 (HCT-116) | further results
249.8 a.u | 230/355 | 300.8 a.u | 280/355 | 167.9 a.u | 290/295 | 9.3690 ± 0.1055 10^4 M^−1 | -49.21 kJ/M | 9.3690 10^12 M^−1 s^−1 | 0.0023 µM | 1.72 | 9.0645 ± 0.0720 10^4 M^−1 | -47.21 kJ/M | 9.0645 10^12 M^−1 s^−1 | 0.00952 µM | 1.66 | COC(=O)CNC(=O)COc1cc(O)c2c(=O)c(-c3ccc(O)cc3)coc2c1 [4a] | > 100 µM | 66.6 ± 3.6 µM | 24.4 ± 1.27 µM | 65.3 ± 2.91 µM | n (binding sites) (BSA [2]; T 298 K): 1.86; K SV (quenching constant) (BSA [2]; T 310 K): 7.7362 ± 0.1223 10^4 M^−1; ΔGexp (BSA [2]; T 310 K): -46.22 kJ/M; K q (quenching rate constant) (BSA [2]; T 310 K): 7.7362 10^12 M^−1 s^−1; Kd (BSA [2]; T 310 K): 0.0153 µM; ΔH (BSA [2]): -123.52 kJ/M; ΔS (BSA [2]): −249.37 J K^−1 M^−1
199.8 a.u | 230/355 | 242.6 a.u | 280/355 | 140.7 a.u | 290/295 | 8.0160 ± 0.1379 10^4 M^−1 | -42.01 kJ/M | 8.0160 10^12 M^−1 s^−1 | 0.0649 µM | 1.53 | 6.9409 ± 0.0956 10^4 M^−1 | -38.43 kJ/M | 6.9409 10^12 M^−1 s^−1 | 0.0794 µM | 1.23 | COC(=O)C(C)NC(=O)COc1cc(O)c2c(=O)c(-c3ccc(O)cc3)coc2c1 (stereo not drawn) [4b] | 21.3 ± 2.24 µM | 90.27 ± 0.47 µM | 12.08 ± 0.06 µM | > 100 µM | ΔGexp (BSA [2]; T 310 K): -36.65 kJ/M; Kd (BSA [2]; T 310 K): 1.55 µM; ΔH (BSA [2]): -175.21 kJ/M; ΔS (BSA [2]): −446.98 J K^−1 M^−1
254.6 a.u | 230/355 | 338.3 a.u | 280/355 | 210.9 a.u | 290/295 | 6.2575 ± 0.1717 10^4 M^−1 | -41.29 kJ/M | 6.2575 10^12 M^−1 s^−1 | 0.084 µM | 1.53 | 5.0010 ± 0.1067 10^4 M^−1 | -37.63 kJ/M | 5.0010 10^12 M^−1 s^−1 | 0.119 µM | 1.24 | COC(=O)C(NC(=O)COc1cc(O)c2c(=O)c(-c3ccc(O)cc3)coc2c1)C(C)C (stereo not drawn) [4c] | 99.73 ± 0.11 µM | 82.71 ± 0.15 µM | 33.53 ± 0.13 µM | 42.64 ± 0.15 µM | n (binding sites) (BSA [2]; T 298 K): 1.54; K SV (quenching constant) (BSA [2]; T 310 K): 4.8646 ± 0.1370 10^4 M^−1; ΔGexp (BSA [2]; T 310 K): -35.81 kJ/M; K q (quenching rate constant) (BSA [2]; T 310 K): 4.8646 10^12 M^−1 s^−1; Kd (BSA [2]; T 310 K): 2.01 µM; ΔH (BSA [2]): -177.34 kJ/M; ΔS (BSA [2]): −456.55 J K^−1 M^−1
263.8 a.u | 230/355 | 331.4 a.u | 280/355 | 155.5 a.u | 290/295 | 4.9339 ± 0.0500 10^4 M^−1 | -39.53 kJ/M | 4.9339 10^12 M^−1 s^−1 | 0.15 µM | 1.47 | 4.8535 ± 0.0465 10^4 M^−1 | -37.19 kJ/M | 4.8535 10^12 M^−1 s^−1 | 0.209 µM | 1.28 | COC(=O)C(CC(C)C)NC(=O)COc1cc(O)c2c(=O)c(-c3ccc(O)cc3)coc2c1 (stereo not drawn) [4d] | 47 ± 3.53 µM | 68.1 ± 1.05 µM | 35.4 ± 3.72 µM | 92.87 ± 0.04 µM | n (binding sites) (BSA [2]; T 298 K): 1.50; K SV (quenching constant) (BSA [2]; T 310 K): 4.5804 ± 0.0360 10^4 M^−1; ΔGexp (BSA [2]; T 310 K): -36.02 kJ/M; K q (quenching rate constant) (BSA [2]; T 310 K): 4.5804 10^12 M^−1 s^−1; Kd (BSA [2]; T 310 K): 1.42 µM; ΔH (BSA [2]): -126.67 kJ/M; ΔS (BSA [2]): −292.42 J K^−1 M^−1

Compound | 3D fluorescence intensity (BSA [1]; [3]) | 3D fluorescence peak position λex/λem (BSA [1]; [3]) | 3D fluorescence intensity (BSA [1]; [4]) | 3D fluorescence peak position λex/λem (BSA [1]; [4]) | 3D fluorescence intensity (BSA [1]; [5]) | 3D fluorescence peak position λex/λem (BSA [1]; [5]) | K SV (quenching constant) (BSA [2]; T 298 K) | ΔGexp (BSA [2]; T 298 K) | K q (quenching rate constant) (BSA [2]; T 298 K) | Kd (BSA [2]; T 298 K) | n (binding sites) (BSA [2]; T 306 K) | K SV (quenching constant) (BSA [2]; T 306 K) | ΔGexp (BSA [2]; T 306 K) | K q (quenching rate constant) (BSA [2]; T 306 K) | Kd (BSA [2]; T 306 K) | n (binding sites) (BSA [2]; T 310 K) | IC50 (MCF-7) | IC50 (Hela) | IC50 (MGC-803) | IC50 (HCT-116) | further results
O=c1c(-c2ccc(O)cc2)coc2cc(O)cc(O)c12 [Genistein] | 259.2 a.u | 230/355 | 333.2 a.u | 280/355 | 159.6 a.u | 290/295 | 6.2416 ± 0.0984 10^4 M^−1 | -37.69 kJ/M | 6.2416 10^12 M^−1 s^−1 | 0.256 µM | 1.39 | 5.3472 ± 0.1242 10^4 M^−1 | -37.11 kJ/M | 5.3472 10^12 M^−1 s^−1 | 0.415 µM | 1.37 | > 100 µM | > 100 µM | > 100 µM | > 100 µM | n (binding sites) (BSA [2]; T 298 K): 1.42; K SV (quenching constant) (BSA [2]; T 310 K): 4.3285 ± 0.1005 10^4 M^−1; ΔGexp (BSA [2]; T 310 K): -36.83 kJ/M; K q (quenching rate constant) (BSA [2]; T 310 K): 4.3285 10^12 M^−1 s^−1; Kd (BSA [2]; T 310 K): 0.671 µM; ΔH (BSA [2]): -59.09 kJ/M; ΔS (BSA [2]): −71.83 J K^−1 M^−1
